Laboratory results reported in patent US20050239656A1, “Pyridine compounds or salts thereof and herbicides containing the same” (priority 2002, published 2005).

Key:
velvetleaf [1] = assay: Test Example 2: soil surface treatment, upland pot test; assay type: in vivo, Abutilon theophrasti MEDIC.; conditions: active ingredient 500 g/ha, observed 20th to 28th day
Summary of the method: (§1)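 Pots (1/170,000 ha) filled with upland field soil were seeded, then treated on the following day by spraying the soil surface with diluted formulation (1,500 L/ha) at a fixed a.i. dose. Control was rated visually on a 0–100% scale at 20–28 days.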

crabgrass [2] = assay: Test Example 1: foliage treatment, upland pot test; assay type: in vivo, Digitaria sanguinalis L.; conditions: active ingredient 500 g/ha, observed 18th to 23rd day, 0 = non-treated, 100 = complete kill
green foxtail [3] = assay: Test Example 1: foliage treatment, upland pot test; assay type: in vivo, Setaria viridis L.; conditions: active ingredient 500 g/ha, observed 18th to 23rd day, 0 = non-treated, 100 = complete kill
redroot pigweed [4] = assay: Test Example 1: foliage treatment, upland pot test; assay type: in vivo, Amaranthus retroflexus L.; conditions: active ingredient 500 g/ha, observed 18th to 23rd day, 0 = non-treated, 100 = complete kill
wheat [5] = assay: Test Example 2: soil surface treatment, upland pot test; assay type: in vivo, Triticum spp.; conditions: active ingredient 500 g/ha, observed 20th to 28th day
Summary of the method: as §1

green foxtail [6] = assay: as above; assay type: in vivo, Setaria viridis L.; conditions: active ingredient 500 g/ha, observed 20th to 28th day
Summary of the method: as §1

corn [7] = assay: as above; assay type: in vivo, Zea mays L.; conditions: active ingredient 500 g/ha, observed 20th to 28th day
Summary of the method: as §1

barnyardgrass [8] = assay: as above; assay type: in vivo, Echinochloa crus-galli L.; conditions: active ingredient 500 g/ha, observed 20th to 28th day
Summary of the method: as §1

velvetleaf [9] = assay: Test Example 1: foliage treatment, upland pot test; assay type: in vivo, Abutilon theophrasti MEDIC.; conditions: active ingredient 500 g/ha, observed 18th to 23rd day, 0 = non-treated, 100 = complete kill
soybean [10] = assay: Test Example 2: soil surface treatment, upland pot test; assay type: in vivo, Glycine max Merr.; conditions: active ingredient 500 g/ha, observed 20th to 28th day
Summary of the method: as §1

corn [11] = assay: Test Example 1: foliage treatment, upland pot test; assay type: in vivo, Zea mays L.; conditions: crop, active ingredient 500 g/ha, observed 18th to 23rd day, 0 = non-treated, 100 = complete kill
Summary of the method: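 In this upland pot foliage test, corn plants at 2.1 to 3.2 leaf stages were sprayed by a small size sprayer. The spray was a conventionally formulated wettable powder or emulsifiable concentrate weighed to a set active ingredient amount, diluted in water at 500 L/ha, plus 0.1% (v/v) agricultural spreader. Visual assessment on days 18 to 23 gave growth controlling degree (%), where 0 equals untreated and 100 means complete kill.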

rice [12] = assay: Test Example 1: foliage treatment, upland pot test; assay type: in vivo, Oryza sativa L.; conditions: crop, active ingredient 500 g/ha, observed 18th to 23rd day, 0 = non-treated, 100 = complete kill
Summary of the method: (§2)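 Upland pot test, foliar. Soybean 0.1–0.4 / wheat 1.3–2.4 / rice 1.2–2.6 / barnyardgrass 1.3–2.8 leaf stage at spraying; 500 L/ha carrier, 0.1% (v/v) spreader. Visual % control, 0 untreated to 100 dead, days 18–23.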

crabgrass [13] = assay: Test Example 2: soil surface treatment, upland pot test; assay type: in vivo, Digitaria sanguinalis L.; conditions: active ingredient 500 g/ha, observed 20th to 28th day
Summary of the method: as §1

japanese bulrush = assay: Test Example 3: paddy pot test, application under submerged conditions; assay type: in vivo, Scirpus juncoides; conditions: active ingredient 250 g/ha; submerged application at 0.5 leaf stage; visually observed 14 days after application; 0 = non-treated, 100 = complete kill
Summary of the method: (§3)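 Visual growth-control rating (0 = untreated, 100 = complete kill) 14 days after treatment. The formulated compound, as a diluted wettable powder or emulsifiable concentrate, went into 3–4 cm flood water at a predetermined active-ingredient dose once the weeds reached 0.5 leaf stage (wapato: primary leaf stage).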

barnyardgrass [14] = assay: Test Example 1: foliage treatment, upland pot test; assay type: in vivo, Echinochloa crus-galli L.; conditions: active ingredient 500 g/ha, observed 18th to 23rd day, 0 = non-treated, 100 = complete kill
Summary of the method: as §2

prickly sida [15] = assay: Test Example 1: foliage treatment, upland pot test; assay type: in vivo, Sida spinosa L.; conditions: active ingredient 500 g/ha, observed 18th to 23rd day, 0 = non-treated, 100 = complete kill
barnyardgrass [16] = assay: Test Example 3: paddy pot test, application under submerged conditions; assay type: in vivo, Echinochloa crus-galli L.; conditions: active ingredient 250 g/ha; submerged application at 0.5 leaf stage; visually observed 14 days after application; 0 = non-treated, 100 = complete kill
Summary of the method: as §3

rice [17] = assay: Test Example 2: soil surface treatment, upland pot test; assay type: in vivo, Oryza sativa L.; conditions: active ingredient 500 g/ha, observed 20th to 28th day
Summary of the method: as §1

wheat [18] = assay: Test Example 1: foliage treatment, upland pot test; assay type: in vivo, Triticum spp.; conditions: crop, active ingredient 500 g/ha, observed 18th to 23rd day, 0 = non-treated, 100 = complete kill
Source text: Upland field soil was put into a 1/170,000 ha pot, and seed of various plants were sown. Then, when the plants reached predetermined leaf stages ((1) barnyardgrass: 1.3 to 2.8 leaf stages, (2) crabgrass: 1.0 to 2.8 leaf stages, (3) green foxtail: 1.3 to 2.6 leaf stages, (4) redroot pigweed: 0.1 to 1.2 leaf stages, (5) prickly sida: 0.1 to 1.2 leaf stages, (6) velvetleaf: 0.1 to 1.2 leaf stages, (7) tall morningglory: 0.1 to 1.5 leaf stages, (8) rice: 1.2 to 2.6 leaf stages, (9) wheat: 1.3 to 2.4 leaf stages, (10) corn, 2.1 to 3.2 leaf stages, (11) soybean: 0.1 to 0.4 leaf stage), a wettable powder or emulsifiable concentrate having the compound of the present invention formulated in accordance with a usual formulation method, was weighed so that the active ingredient would be a predetermined amount, and diluted with water in an amount of 500 L/ha. To the diluted solution, 0.1% (v/v) of agricultural spreader was added. The herbicide thus adjusted was applied by a small size sprayer for foliage treatment. On the 18th to 23rd days after the application of the herbicide, the growth of the respective plants was visually observed, and the herbicidal effects were evaluated by the growth controlling degrees (%) ranging from 0 (equivalent to the non-treated plot) to 100 (complete kill), whereby the results shown in Table 3, were obtained.

rice (var. Nihonbare) = assay: Test Example 3: paddy pot test, transplanted rice; assay type: in vivo, Oryza sativa L.; conditions: active ingredient 250 g/ha, applied 4th day after transplantation, visually observed 21st day after application, 0 = non-treated, 100 = complete kill
Summary of the method: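 Rice (var. Nihonbare) at 2 leaf stage transplanted 3 cm deep into puddled paddy soil under 3–4 cm flooding; on day 4 after transplanting, diluted wettable powder or emulsifiable concentrate applied by pipette under submerged conditions at a set active-ingredient dose. Growth scored visually 21 days after application, 0 (untreated) to 100 (complete kill) %.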

redroot pigweed [19] = assay: Test Example 2: soil surface treatment, upland pot test; assay type: in vivo, Amaranthus retroflexus L.; conditions: active ingredient 500 g/ha, observed 20th to 28th day
Summary of the method: as §1

prickly sida [20] = assay: as above; assay type: in vivo, Sida spinosa L.; conditions: active ingredient 500 g/ha, observed 20th to 28th day
Summary of the method: as §1

soybean [21] = assay: Test Example 1: foliage treatment, upland pot test; assay type: in vivo, Glycine max Merr.; conditions: crop, active ingredient 500 g/ha, observed 18th to 23rd day, 0 = non-treated, 100 = complete kill
Summary of the method: as §2

SMILES	Growth controlling degree (%) Velvetleaf (velvetleaf [1]) [%]	Growth controlling degree (%) Crabgrass (crabgrass [2]) [%]	Growth controlling degree (%) Green foxtail (green foxtail [3]) [%]	Growth controlling degree (%) Redroot pigweed (redroot pigweed [4]) [%]	Growth controlling degree (%) wheat (wheat [5]) [%]	Growth controlling degree (%) Corn (corn [7]) [%]	Growth controlling degree (%) Barnyardgrass (barnyardgrass [8]) [%]	Growth controlling degree (%) Velvetleaf (velvetleaf [9]) [%]	Growth controlling degree (%) Soyabean (soybean [10]) [%]	Growth controlling degree (%) Corn (corn [11]) [%]	Growth controlling degree (%) Rice (rice [12]) [%]	Growth controlling degree (%) Crabgrass (crabgrass [13]) [%]	Growth controlling degree (%) Japanese bulrush (japanese bulrush) [%]	Growth controlling degree (%) Barnyardgrass (barnyardgrass [14]) [%]	Growth controlling degree (%) Prickly sida (prickly sida [15]) [%]	Growth controlling degree (%) Barnyardgrass (barnyardgrass [16]) [%]	Growth controlling degree (%) Rice (rice [17]) [%]	Growth controlling degree (%) wheat (wheat [18]) [%]	Growth controlling degree (%) Rice (rice (var. Nihonbare)) [%]	Growth controlling degree (%) Redroot pigweed (redroot pigweed [19]) [%]	other results
Cc1ccc(OC(C)C(=O)N(C)C(c2cnccc2C(F)(F)F)C(C)C)cc1 (mixture of isomers) [I-131]	0	80	70	70	20	10	100	50	40	50	30	100	95	70	70	100	20	50	10	30	Growth controlling degree (%) Green foxtail (green foxtail [6]): 100%; Growth controlling degree (%) Prickly sida (prickly sida [20]): 60%; Growth controlling degree (%) Soybean (soybean [21]): 80%
CC(Oc1ccc(Br)cc1)C(=O)N(C)C(c1cnccc1C(F)(F)F)C(C)C (mixture of isomers) [I-132]	0	90	60	70	10	0	98	60	10	80	10	90	80	70	80	100	10	10	20	10	Growth controlling degree (%) Prickly sida (prickly sida [20]): 70%; Growth controlling degree (%) Soybean (soybean [21]): 80%
